Literature values as cited in patent US9222055B2, “High intensity fragrances” (TAKASAGO INTERNATIONAL CORPORATION, priority 2009, dated 2015).
Where two headings read alike, the source gives them in different places.

Legend:
[1] = for Readily biodegradable: Table 1
[2] = evidence from prior art
[3] = Table 1, measured value where available
[4] = Table 19, ingredients of Comparative Fragrance K
[5] = Table 18, ingredients of Comparative Fragrance J

In the case of COc1ccc(C)cc1 [Cresyl methyl ether], the Bio-Degradable [1, 4] is listed as “Yes”.

In the case of O=C(OCc1ccccc1)c1ccccc1O [Benzyl Salicylate], the Bio-Degradable [1, 5] is given as “No”.

In the case of CCOC(=O)CC(C)=O [Ethyl acetoaceteate], the Bio-Degradable [1, 4] is given as “Yes”.

For CC=Cc1ccc(O)c(OC)c1 [isoeugenol], the allergen classification [2] is given as “strong allergens”.

For COc1cc(C=O)ccc1O [VANILLIN, vanillin], the Readily biodegradable [1] is given as “Yes” and the Bio-Degradable [1, 4] is given as “Yes”.

In the case of CCCCOC(C)=O [BUTYL ACETATE, butyl acetate], the Readily biodegradable [1] is given as “Yes” and the LogP [3] is given as 1.78.

In the case of C=C(C)[C@H]1CC=C(C)CC1 [LIMONENE, limonene], the Readily biodegradable [1] is listed as “No” and the LogP [3] is listed as 4.57.

For C=CC(C)(CCC=C(C)C)OC(C)=O (stereo not shown) [Linalyl acetate], the Bio-Degradable [1, 4] is given as “No”.

In the case of COC(=O)c1ccccc1N [METHYL ANTHRANILATE, methyl anthranilate], the Readily biodegradable [1] is listed as “Med”.

For CC(C)=CCCC(C)=CC=O [CITRAL, citral], the biodegradability classification ([1]; OECD 301B, The Terpene Consortium Robust Summary) is given as “readily biodegradable”, the Readily biodegradable [1] is given as “Yes” and the allergen classification [2] is given as “strong allergens”.

In the case of O=Cc1ccc2c(c1)OCO2 [HELIOTROPINE, heliotropine], the LogP [3] is listed as 1.05.

In the case of CCCCCOC(C)=O [n-AMYL ACETATE, n-amyl acetate], the Readily biodegradable [1] is given as “Yes” and the LogP [3] is given as 2.30.

In the case of C=CC(C)(O)CCC=C(C)C (stereo not shown) [LINALOOL, linalool], the Readily biodegradable [1] is listed as “No”, the Bio-Degradable [1, 5] is listed as “No” and the Bio-Degradable [1, 4] is listed as “No”.

In the case of C=CCOC(=O)CCCCC [ALLYL HEXANOATE, allyl hexanoate], the Readily biodegradable [1] is listed as “Yes”.

In the case of CCCC(=O)OCC [ETHYL BUTYRATE, ethyl butyrate], the Readily biodegradable [1] is given as “Yes” and the LogP [3] is given as 1.73.

For O=C1CCCCCCCCCCCC(=O)OCCO1 [Ethylene brassylate], the Bio-Degradable [1, 5] is listed as “Yes” and the Bio-Degradable [1, 4] is listed as “Yes”.

In the case of CCCCC/C(C=O)=C/c1ccccc1 [Amyl cinnamic aldehyde], the allergen classification [2] is given as “strong allergens”.

For O=C/C=C/c1ccccc1 [CINNAMIC ALDEHYDE, cinnamic aldehyde], the Readily biodegradable [1] is listed as “Yes” and the allergen classification [2] is listed as “strong allergens”.

For CC(=O)/C(C)=C/C1C(C)=CCCC1(C)C (stereo not shown) [Gamma methyl ionone], the Bio-Degradable [1, 4] is given as “No”.

In the case of CCCCCCC(=O)OCC [ETHYL HEPTANOTE, ethyl heptanoate], the Readily biodegradable [1] is listed as “Yes”.

For CC(C)=CCCC(C)CCO (stereo not shown) [CITRONELLOL, citronellol], the biodegradability classification ([1]; OECD 301F, The Terpene Consortium Robust Summary) is given as “readily biodegradable” and the Readily biodegradable [1] is given as “Yes”.

For CCCCCCOC(C)=O [HEXYL ACETATE, hexyl acetate], the Readily biodegradable [1] is listed as “Yes”.

In the case of CCCCCCCC(=O)OCC [ETHYL CAPRYLATE, ethyl caprylate], the Readily biodegradable [1] is given as “Yes”.

In the case of CC1=CCC(O)(C(C)C)CC1 (stereo not shown) [1-terpinen-4-ol], the Readily biodegradable [1] is given as “No” and the LogP [3] is given as 3.26.

For CCCC(=O)OC(C)(C)Cc1ccccc1 [Dimethyl benzyl carbonyl butyrate], the Bio-Degradable [1, 5] is listed as “No”.

In the case of CC(C=O)Cc1ccc(C(C)(C)C)cc1 (stereo not drawn) [Para tert-butyl-alpha Methyl hydrocinnamic Aldehyde], the Bio-Degradable [1, 5] is listed as “No” and the allergen classification [2] is listed as “strong allergens”.

In the case of CCC/C=C/C=O [TRANS-2-HEXENAL, trans-2-hexenal], the Readily biodegradable [1] is given as “Yes”.

In the case of CCCCCCC(C=O)=Cc1ccccc1 [Hexyl Cinnamic Aldehyde], the Bio-Degradable [1, 5] is listed as “Yes”.

For CC1=CCC(C(C)(C)O)CC1 (stereo not drawn) [TERPINEOL, ALPHA, alpha-terpineol], the Readily biodegradable [1] is given as “No” and the LogP [3] is given as 2.98.

For CCOC(=O)CC [ETHYL PROPIONATE, ethyl propionate], the Readily biodegradable [1] is given as “Yes” and the LogP [3] is given as 1.21.

For COC(=O)c1ccccc1O [METHYL SALICYLATE, methyl salicylate], the Readily biodegradable [1] is listed as “Yes”.

In the case of Cc1occc(=O)c1O [VELTOL ™, 3-hydroxy-2-methyl-4-pyrone], the Readily biodegradable [1] is listed as “Yes”.

In the case of CCCCCC1COCCC1OC(C)=O (stereo not shown) [Tetrahydro-3-penthyl-2H-pyran-4-yl acetate], the Bio-Degradable [1, 5] is listed as “Yes”.

In the case of CCCCCC(=O)OCC [ETHYL CAPROATE, ethyl caproate], the Readily biodegradable [1] is listed as “Yes”.

In the case of CCCCC1CCC(=O)O1 (stereo not shown) [OCTALACTONE, GAMMA, octalactone gamma], the Readily biodegradable [1] is listed as “Yes”.

In the case of CCCCCOC(=O)CC [n-AMYL PROPIONATE, n-amyl propionate], the Readily biodegradable [1] is listed as “Yes” and the LogP [3] is listed as 2.66.

For OCc1ccccc1 [BENZYL ALCOHOL, benzyl alcohol], the Readily biodegradable [1] is given as “Yes”.

In the case of OCCc1ccccc1 [PHENYLETHYL ALCOHOL, 2-phenylethylalcohol], the Readily biodegradable [1] is listed as “Yes” and the Bio-Degradable [1, 4] is listed as “Yes”.

For CC(C)=CCCC(C)=CCCC(C)=CCO [farnesol], the allergen classification [2] is listed as “strong allergens”.

For CC(=O)OCCC(C)C [ISOAMYL ACETATE, isoamyl acetate], the Readily biodegradable [1] is listed as “Yes” and the LogP [3] is listed as 2.25.

For C=CCCCCCCCCC=O [Undecelenic aldehyde], the Bio-Degradable [1, 4] is listed as “Yes”.

In the case of CCCCCCC1CCC(=O)O1 (stereo not shown) [DECALACTONE GAMMA, decalactone gamma], the Readily biodegradable [1] is listed as “Yes” and the LogP [3] is listed as 2.72.

In the case of CCCCCCCCCCCC=O [Dodecanal], the Bio-Degradable [1, 4] is given as “Yes”.

In the case of CCOC(=O)C12CCCC1C1CCC2C1 (stereo not shown) [Ethyl tricyclodecan-2-carboxylate], the Bio-Degradable [1, 5] is listed as “No”.

In the case of CC(C)[C@@H]1CC[C@@H](C)C[C@H]1O [L-MENTHOL, L-menthol], the Readily biodegradable [1] is listed as “No”.

In the case of CC(=O)/C=C/C1C(C)=CCCC1(C)C (stereo not drawn) [Alpha ionone], the Bio-Degradable [1, 4] is given as “No”.

For CCCCCCOC(=O)c1ccccc1O [Hexyl salicylate], the Bio-Degradable [1, 4] is listed as “Yes”.

In the case of CCCc1ccc(O)c(OC)c1 [Dihydroeugenol], the Bio-Degradable [1, 4] is given as “No”.

In the case of CC/C=C\CCOC(=O)CC [CIS-3-HEXENYL PROPIONATE, cis-3-hexenyl propionate], the Readily biodegradable [1] is listed as “Yes”.

In the case of CC/C=C\CCOC(C)=O [CIS-3-HEXENYL ACETATE, cis-3-hexenyl acetate], the Readily biodegradable [1] is given as “Yes” and the LogP [3] is given as 2.34.

In the case of OC/C=C/c1ccccc1 [CINNAMIC ALCOHOL, cinnamic alcohol], the Readily biodegradable [1] is given as “Yes”, the LogP [3] is given as 1.95 and the allergen classification [2] is given as “strong allergens”.

For COc1ccc(C=O)cc1 [ANISIC ALDEHYDE, anisic aldehyde], the Readily biodegradable [1] is given as “Yes”.

In the case of CCCCCC1C(=O)CCC1CC(=O)OC (stereo not shown) [Methyldihydrojasmonate], the Bio-Degradable [1, 4] is given as “Yes”.

For CC(=O)OCc1ccccc1 [BENZYL ACETATE, benzyl acetate], the biodegradability classification ([1]; OECD 301B or OECD 301F, Test Plan for Benzyl Derivatives) is listed as “readily biodegradable”, the Readily biodegradable [1] is listed as “Yes” and the Bio-Degradable [1, 4] is listed as “Yes”.

In the case of CC(C)CC1CC(C)(O)CCO1 (stereo not shown) [2-isobutyl-4-methyltetrahydro-2H-pyran-4-ol], the Bio-Degradable [1, 4] is given as “No”.

In the case of CC(=O)OCCc1ccccc1 [PHENYLETHYL ACETATE, 2-phenylethyl acetate], the Readily biodegradable [1] is given as “Yes” and the LogP [3] is given as 2.30.
